# Data reported in patent publication US9695155B2, “Herbicidal substituted pyrimidinyloxy benzene compounds” (E. I. DU PONT DE NEMOURS AND COMPANY, priority 2013, dated 2017).
# Key:
# [1] = tested on: wild oat; test: Test D postemergence; assay type: in vivo, Avena fatua; settings: Avena fatua, post-emergence
# Description: (§1) Seeds of plant species selected from bluegrass (annual bluegrass, Poa annua), blackgrass (Alopecurus myosuroides), canarygrass (littleseed canarygrass, Phalaris minor), chickweed (common chickweed, Stellaria media), galium (catchweed bedstraw, Galium aparine), bromegrass, downy (downy bromegrass, Bromus tectorum), field poppy (Papaver rhoeas), field violet (Viola arvensis), green foxtail (Setaria viridis), deadnettle (henbit deadnettle, Lamium amplexicaule), Italian ryegrass (Lolium multiflorum), kochia (Kochia scoparia), lambsquarters (Chenopodium album), oilseed rape (Brassica napus), pigweed (Amaranthus retroflexus), chamomile (scentless chamomile, Matricaria inodora), Russian thistle (Salsola kali), speedwell (bird's-eye speedwell, Veronica persica), spring barley (Hordeum vulgare), spring wheat (Triticum aestivum), wild buckwheat (Polygonum convolvulus), wild mustard (Sinapis arvensis), wild oat (Avena fatua), wild radish (Raphanus raphanistrum), windgrass (Apera spica-venti), winter barley (Hordeum vulgare), and winter wheat (Triticum aestivum) were planted into a silt loam soil and treated preemergence with test chemicals formulated in a non-phytotoxic solvent mixture which included a surfactant.
# (§2) At the same time, these species were planted in pots containing Redi-Earth® planting medium (Scotts Company, 14111 Scottslawn Road, Marysville, Ohio 43041) comprising spaghnum peat moss, vermiculite, wetting agent and starter nutrients and treated with postemergence applications of the test chemicals formulated in the same manner. Plants ranged in height from 2 to 18 cm (1- to 4-leaf stage). Treated plants and controls were maintained in a controlled growth environment for 7 to 21 days after which time all species were compared to controls and visually evaluated. Plant response ratings, summarized in Table D, are based on a scale of 0 to 100 where 0 is no effect and 100 is complete control. A dash (-) response means no test result.
# [2] = tested on: chickweed; test: Test D postemergence; assay type: in vivo, Stellaria media; settings: Stellaria media, post-emergence
# Procedure, shortened: (§3)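 Visual ratings from 0 (no effect) to 100 (complete control) relative to untreated plants were taken 7–21 days after treatment. Chemicals in a surfactant-containing solvent mixture were applied preemergence to seeds in silt loam, or postemergence to plants 2–18 cm tall (1–4 leaves) grown in a peat-based potting medium.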
# [3] = tested on: Italian ryegrass; test: Test D postemergence; assay type: in vivo, Lolium multiflorum; settings: Lolium multiflorum, post-emergence
# Description: as §1, §2
# [4] = tested on: galium; test: Test D preemergence; assay type: in vivo, Galium aparine; settings: Galium, pre-emergence
# Procedure, shortened: as §3
# [5] = tested on: Italian ryegrass; test: Test D preemergence; assay type: in vivo, Lolium multiflorum; settings: Lolium multiflorum, pre-emergence
# Procedure, shortened: as §3
# [6] = tested on: wild radish; test: Test D preemergence; assay type: in vivo, Raphanus raphanistrum; settings: Raphanus raphanistrum, pre-emergence
# Procedure, shortened: as §3
# [7] = tested on: chamomile; test: Test D postemergence; assay type: in vivo, Matricaria inodora; settings: Tripleurospermum inodorum, post-emergence
# Description: as §1, §2
# [8] = tested on: spring wheat; test: Test D preemergence; assay type: in vivo, Triticum aestivum; settings: Triticum aestivum, pre-emergence
# Procedure, shortened: as §3
# [9] = tested on: winter wheat; test: Test D preemergence; assay type: in vivo, Triticum aestivum; settings: Triticum aestivum, pre-emergence
# Procedure, shortened: as §3
# [10] = tested on: kochia; test: Test D preemergence; assay type: in vivo, Kochia scoparia; settings: Bassia scoparia, pre-emergence
# Procedure, shortened: as §3
# [11] = tested on: winter barley; test: Test D preemergence; assay type: in vivo, Hordeum vulgare; settings: Hordeum vulgare, pre-emergence
# Procedure, shortened: as §3
# [12] = tested on: spring barley; test: Test D preemergence; assay type: in vivo, Hordeum vulgare; settings: Hordeum vulgare, pre-emergence
# Procedure, shortened: as §3
smiles,measurement,setting,value
"Fc1cccc(Oc2ncc(Cl)cn2)c1-n1cc(C(F)F)nn1 [Compound 141, 5-chloro-2-[2-[4-(difluoromethyl)-1H-1,2,3-triazol-1-yl]-3-fluorophenoxy]pyrimidine]",pest or weed control at 16 g/ha,"[1]; 16 g ai/ha, scale 0-100, read-out: Plant response rating, Oat, Wild",5%
same,pest or weed control at 31 g/ha,"[1]; 31 g ai/ha, scale 0 to 100 (0 no effect, 100 complete control), read-out: Plant response rating, Oat, Wild",10%
same,pest or weed control at 62 g/ha,"[1]; 62 g ai/ha, scale 0 to 100 (0 no effect, 100 complete control), read-out: Plant response rating, Oat, Wild",15%
same,pest or weed control at 125 g/ha,"[1]; 125 g ai/ha, scale 0 to 100 (0 no effect, 100 complete control), read-out: Plant response rating, Oat, Wild",30%
same,pest or weed control at 16 g/ha,"[2]; 16 g ai/ha, scale 0-100, read-out: Plant response rating, Chickweed",70%
same,pest or weed control at 31 g/ha,"[2]; 31 g ai/ha, scale 0 to 100 (0 no effect, 100 complete control), read-out: Plant response rating, Chickweed",90%
same,pest or weed control at 62 g/ha,"[2]; 62 g ai/ha, scale 0 to 100 (0 no effect, 100 complete control), read-out: Plant response rating, Chickweed",95%
same,pest or weed control at 125 g/ha,"[2]; 125 g ai/ha, scale 0 to 100 (0 no effect, 100 complete control), read-out: Plant response rating, Chickweed",100%
same,pest or weed control at 16 g/ha,"[3]; 16 g ai/ha, scale 0-100, read-out: Plant response rating, Ryegrass, Italian",5%
same,pest or weed control at 31 g/ha,"[3]; 31 g ai/ha, scale 0 to 100 (0 no effect, 100 complete control), read-out: Plant response rating, Ryegrass, Italian",15%
same,pest or weed control at 62 g/ha,"[3]; 62 g ai/ha, scale 0 to 100 (0 no effect, 100 complete control), read-out: Plant response rating, Ryegrass, Italian",20%
same,pest or weed control at 125 g/ha,"[3]; 125 g ai/ha, scale 0 to 100 (0 no effect, 100 complete control), read-out: Plant response rating, Ryegrass, Italian",25%
same,pest or weed control at 16 g/ha,"[4]; 16 g ai/ha, scale 0 (no effect) to 100 (complete control), read-out: Plant response rating, Galium",75%
same,pest or weed control at 31 g/ha,"[4]; 31 g ai/ha, scale 0-100, read-out: Plant response rating, Galium",100%
same,pest or weed control at 62 g/ha,"[4]; 62 g ai/ha, scale 0-100, read-out: Plant response rating, Galium",100%
same,pest or weed control at 125 g/ha,"[4]; 125 g ai/ha, scale 0-100, read-out: Plant response rating, Galium",100%
same,pest or weed control at 16 g/ha,"[5]; 16 g ai/ha, scale 0 (no effect) to 100 (complete control), read-out: Plant response rating, Ryegrass, Italian",35%
same,pest or weed control at 31 g/ha,"[5]; 31 g ai/ha, scale 0 (no effect) to 100 (complete control), read-out: Plant response rating, Ryegrass, Italian",55%
same,pest or weed control at 62 g/ha,"[5]; 62 g ai/ha, scale 0-100, read-out: Plant response rating, Ryegrass, Italian",70%
same,pest or weed control at 125 g/ha,"[5]; 125 g ai/ha, scale 0-100, read-out: Plant response rating, Ryegrass, Italian",75%
same,pest or weed control at 16 g/ha,"[6]; 16 g ai/ha, scale 0 (no effect) to 100 (complete control), read-out: Plant response rating, Radish, Wild",40%
same,pest or weed control at 31 g/ha,"[6]; 31 g ai/ha, scale 0 (no effect) to 100 (complete control), read-out: Plant response rating, Radish, Wild",98%
same,pest or weed control at 62 g/ha,"[6]; 62 g ai/ha, scale 0-100, read-out: Plant response rating, Radish, Wild",100%
same,pest or weed control at 125 g/ha,"[6]; 125 g ai/ha, scale 0-100, read-out: Plant response rating, Radish, Wild",100%
same,pest or weed control at 16 g/ha,"[7]; 16 g ai/ha, scale 0-100, read-out: Plant response rating, Chamomile",10%
same,pest or weed control at 31 g/ha,"[7]; 31 g ai/ha, scale 0 to 100 (0 no effect, 100 complete control), read-out: Plant response rating, Chamomile",20%
same,pest or weed control at 62 g/ha,"[7]; 62 g ai/ha, scale 0 to 100 (0 no effect, 100 complete control), read-out: Plant response rating, Chamomile",15%
same,pest or weed control at 125 g/ha,"[7]; 125 g ai/ha, scale 0 to 100 (0 no effect, 100 complete control), read-out: Plant response rating, Chamomile",20%
same,plant injury at 16 g/ha,"[8]; 16 g ai/ha, scale 0 (no effect) to 100 (complete control), read-out: Plant response rating, Wheat, Spring",25%
same,plant injury at 31 g/ha,"[8]; 31 g ai/ha, scale 0 (no effect) to 100 (complete control), read-out: Plant response rating, Wheat, Spring",30%
same,plant injury at 62 g/ha,"[8]; 62 g ai/ha, scale 0-100, read-out: Plant response rating, Wheat, Spring",65%
same,plant injury at 125 g/ha,"[8]; 125 g ai/ha, scale 0-100, read-out: Plant response rating, Wheat, Spring",75%
same,plant injury at 16 g/ha,"[9]; 16 g ai/ha, scale 0 (no effect) to 100 (complete control), read-out: Plant response rating, Wheat, Winter",15%
same,plant injury at 31 g/ha,"[9]; 31 g ai/ha, scale 0 (no effect) to 100 (complete control), read-out: Plant response rating, Wheat, Winter",20%
same,plant injury at 62 g/ha,"[9]; 62 g ai/ha, scale 0-100, read-out: Plant response rating, Wheat, Winter",60%
same,plant injury at 125 g/ha,"[9]; 125 g ai/ha, scale 0-100, read-out: Plant response rating, Wheat, Winter",60%
same,pest or weed control at 16 g/ha,"[10]; 16 g ai/ha, scale 0 (no effect) to 100 (complete control), read-out: Plant response rating, Kochia",85%
same,pest or weed control at 31 g/ha,"[10]; 31 g ai/ha, scale 0-100, read-out: Plant response rating, Kochia",100%
same,pest or weed control at 62 g/ha,"[10]; 62 g ai/ha, scale 0-100, read-out: Plant response rating, Kochia",100%
same,pest or weed control at 125 g/ha,"[10]; 125 g ai/ha, scale 0-100, read-out: Plant response rating, Kochia",100%
same,plant injury at 16 g/ha,"[11]; 16 g ai/ha, scale 0 (no effect) to 100 (complete control), read-out: Plant response rating, Barley, Winter",15%
same,plant injury at 31 g/ha,"[11]; 31 g ai/ha, scale 0-100, read-out: Plant response rating, Barley, Winter",35%
same,plant injury at 62 g/ha,"[11]; 62 g ai/ha, scale 0-100, read-out: Plant response rating, Barley, Winter",65%
same,plant injury at 125 g/ha,"[11]; 125 g ai/ha, scale 0-100, read-out: Plant response rating, Barley, Winter",90%
same,plant injury at 16 g/ha,"[12]; 16 g ai/ha, scale 0 (no effect) to 100 (complete control), read-out: Plant response rating, Barley, Spring",15%
same,plant injury at 31 g/ha,"[12]; 31 g ai/ha, scale 0-100, read-out: Plant response rating, Barley, Spring",20%
same,plant injury at 62 g/ha,"[12]; 62 g ai/ha, scale 0-100, read-out: Plant response rating, Barley, Spring",65%
same,plant injury at 125 g/ha,"[12]; 125 g ai/ha, scale 0-100, read-out: Plant response rating, Barley, Spring",90%
